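Method: 48-hour compound exposure of cells in 96-well plates, five concentrations, linear interpolation of endpoints. GI50: concentration for 50% inhibition of growth. The concentration for full growth arrest is given as TGI.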
Tests used:
Experiment in all cases: NCI anticancer screen, dose series, 48 h
K-562 leukemia = tested on: K-562 leukemia
MALME-3M melanoma = tested on: MALME-3M melanoma
TK-10 renal = tested on: TK-10 renal
SF-268 CNS = tested on: SF-268 CNS
UO-31 renal = tested on: UO-31 renal
NCI-H522 lung = tested on: NCI-H522 lung
PC-3 prostate = tested on: PC-3 prostate
SNB-75 CNS = tested on: SNB-75 CNS
UACC-257 melanoma = tested on: UACC-257 melanoma
SN12C renal = tested on: SN12C renal
HCT-116 colon = tested on: HCT-116 colon
OVCAR-8 ovarian = tested on: OVCAR-8 ovarian
SF-295 CNS = tested on: SF-295 CNS
KM12 colon = tested on: KM12 colon
DU-145 prostate = tested on: DU-145 prostate
SK-OV-3 ovarian = tested on: SK-OV-3 ovarian
NCI-H23 lung = tested on: NCI-H23 lung
RPMI-8226 leukemia = tested on: RPMI-8226 leukemia
T-47D breast = tested on: T-47D breast
SW-620 colon = tested on: SW-620 colon
RXF 393 renal = tested on: RXF 393 renal
NCI-H460 lung = tested on: NCI-H460 lung
SF-539 CNS = tested on: SF-539 CNS
OVCAR-5 ovarian = tested on: OVCAR-5 ovarian
HT29 colon = tested on: HT29 colon
OVCAR-4 ovarian = tested on: OVCAR-4 ovarian
HOP-62 NSCLC = tested on: HOP-62 NSCLC
MDA-MB-435 = tested on: MDA-MB-435
NCI-H226 lung = tested on: NCI-H226 lung
IGROV1 ovarian = tested on: IGROV1 ovarian
A498 renal = tested on: A498 renal
HS 578T breast = tested on: HS 578T breast
SK-MEL-2 melanoma = tested on: SK-MEL-2 melanoma
CCRF-CEM leukemia = tested on: CCRF-CEM leukemia
OVCAR-3 ovarian = tested on: OVCAR-3 ovarian
UACC-62 melanoma = tested on: UACC-62 melanoma
MOLT-4 leukemia = tested on: MOLT-4 leukemia
SK-MEL-28 melanoma = tested on: SK-MEL-28 melanoma
HOP-92 NSCLC = tested on: HOP-92 NSCLC
LOX IMVI melanoma = tested on: LOX IMVI melanoma
SNB-19 CNS = tested on: SNB-19 CNS
BT-549 breast = tested on: BT-549 breast
U251 CNS = tested on: U251 CNS
M14 melanoma = tested on: M14 melanoma
HCC-2998 colon = tested on: HCC-2998 colon
HL-60(TB) leukemia = tested on: HL-60(TB) leukemia
SK-MEL-5 melanoma = tested on: SK-MEL-5 melanoma
MDA-MB-231 breast = tested on: MDA-MB-231 breast
CAKI-1 renal = tested on: CAKI-1 renal
HCT-15 colon = tested on: HCT-15 colon
SR leukemia = tested on: SR leukemia
COLO 205 colon = tested on: COLO 205 colon
A549 NSCLC = tested on: A549 NSCLC
NCI/ADR-RES ovarian = tested on: NCI/ADR-RES ovarian
786-0 renal = tested on: 786-0 renal
EKVX NSCLC = tested on: EKVX NSCLC
MCF7 breast = tested on: MCF7 breast
ACHN renal = tested on: ACHN renal

COc1ccc(Nc2cc(C)nc(NCc3ccccc3)n2)cc1
GI50 (K-562 leukemia): 2690 nM | TGI (K-562 leukemia): 15.3 µM | GI50 (MALME-3M melanoma): 2360 nM | TGI (MALME-3M melanoma): 9.2 µM | GI50 (TK-10 renal): 5.48 µM | TGI (TK-10 renal): 18.9 µM | GI50 (SF-268 CNS): 13.1 µM | TGI (SF-268 CNS): 36.3 µM | GI50 (UO-31 renal): 2770 nM | TGI (UO-31 renal): 15.9 µM | GI50 (NCI-H522 lung): 3.62 µM | TGI (NCI-H522 lung): 19.2 µM | GI50 (PC-3 prostate): 3.25 µM | TGI (PC-3 prostate): 19 µM | GI50 (SNB-75 CNS): 4.65 µM | TGI (SNB-75 CNS): 18.8 µM | GI50 (UACC-257 melanoma): 3.18 µM | TGI (UACC-257 melanoma): 13.3 µM | GI50 (SN12C renal): 5.28 µM | TGI (SN12C renal): 20.4 µM | GI50 (HCT-116 colon): 2490 nM | TGI (HCT-116 colon): 13 µM | GI50 (OVCAR-8 ovarian): 6.71 µM | TGI (OVCAR-8 ovarian): 35.2 µM | GI50 (SF-295 CNS): 2570 nM | TGI (SF-295 CNS): 15.3 µM | GI50 (KM12 colon): 6.2 µM | TGI (KM12 colon): 21.9 µM | GI50 (DU-145 prostate): 10.6 µM | TGI (DU-145 prostate): 23 µM | GI50 (SK-OV-3 ovarian): 8.84 µM | TGI (SK-OV-3 ovarian): 23.8 µM | GI50 (NCI-H23 lung): 3.55 µM | TGI (NCI-H23 lung): 16.3 µM | GI50 (RPMI-8226 leukemia): 1810 nM | TGI (RPMI-8226 leukemia): 7.41 µM | GI50 (T-47D breast): 2600 nM | TGI (T-47D breast): 11.3 µM | GI50 (SW-620 colon): 4.2 µM | TGI (SW-620 colon): 20 µM | GI50 (RXF 393 renal): 3.07 µM | TGI (RXF 393 renal): 14.4 µM | GI50 (NCI-H460 lung): 4.09 µM | TGI (NCI-H460 lung): 17.6 µM | GI50 (SF-539 CNS): 4.24 µM | TGI (SF-539 CNS): 16.7 µM | GI50 (OVCAR-5 ovarian): 5.31 µM | TGI (OVCAR-5 ovarian): 20.1 µM | GI50 (HT29 colon): 2810 nM | TGI (HT29 colon): 12.7 µM | GI50 (OVCAR-4 ovarian): 2420 nM | TGI (OVCAR-4 ovarian): 19.3 µM | GI50 (HOP-62 NSCLC): 9.92 µM | TGI (HOP-62 NSCLC): 24.9 µM | GI50 (MDA-MB-435): 3.16 µM | TGI (MDA-MB-435): 13 µM | GI50 (NCI-H226 lung): 6.14 µM | TGI (NCI-H226 lung): 21.3 µM | GI50 (IGROV1 ovarian): 6.67 µM | TGI (IGROV1 ovarian): 23.4 µM | GI50 (A498 renal): 1830 nM | TGI (A498 renal): 13.6 µM | GI50 (HS 578T breast): 11 µM | TGI (HS 578T breast): 39.2 µM | GI50 (SK-MEL-2 melanoma): 6.34 µM | TGI (SK-MEL-2 melanoma): 23.8 µM | GI50 (CCRF-CEM leukemia): 3.06 µM | TGI (CCRF-CEM leukemia): 23.7 µM | GI50 (OVCAR-3 ovarian): 7.27 µM | TGI (OVCAR-3 ovarian): 24.5 µM | GI50 (UACC-62 melanoma): 2840 nM | TGI (UACC-62 melanoma): 14.4 µM | GI50 (MOLT-4 leukemia): 5.5 µM | TGI (MOLT-4 leukemia): 26.9 µM | GI50 (SK-MEL-28 melanoma): 2390 nM | TGI (SK-MEL-28 melanoma): 6.97 µM | GI50 (HOP-92 NSCLC): 1190 nM | TGI (HOP-92 NSCLC): 6.43 µM | GI50 (LOX IMVI melanoma): 2200 nM | TGI (LOX IMVI melanoma): 6.38 µM | GI50 (SNB-19 CNS): 5.02 µM | TGI (SNB-19 CNS): 28.8 µM | GI50 (BT-549 breast): 4.42 µM | TGI (BT-549 breast): 17.7 µM | GI50 (U251 CNS): 3.13 µM | TGI (U251 CNS): 14.3 µM | GI50 (M14 melanoma): 2110 nM | TGI (M14 melanoma): 7.52 µM | GI50 (HCC-2998 colon): 2020 nM | TGI (HCC-2998 colon): 4.04 µM | GI50 (HL-60(TB) leukemia): 4.91 µM | TGI (HL-60(TB) leukemia): 27.6 µM | GI50 (SK-MEL-5 melanoma): 1360 nM | TGI (SK-MEL-5 melanoma): 2840 nM | GI50 (MDA-MB-231 breast): 3.45 µM | TGI (MDA-MB-231 breast): 16.1 µM | GI50 (CAKI-1 renal): 3.9 µM | TGI (CAKI-1 renal): 17.2 µM | GI50 (HCT-15 colon): 2800 nM | TGI (HCT-15 colon): 11.9 µM | GI50 (SR leukemia): 3.32 µM | TGI (SR leukemia): 13 µM | GI50 (COLO 205 colon): 2080 nM | TGI (COLO 205 colon): 4.4 µM | GI50 (A549 NSCLC): 6.53 µM | TGI (A549 NSCLC): 24.7 µM | GI50 (NCI/ADR-RES ovarian): 2920 nM | TGI (NCI/ADR-RES ovarian): 17.6 µM | GI50 (786-0 renal): 3.49 µM | TGI (786-0 renal): 17.6 µM | GI50 (EKVX NSCLC): 3.3 µM | TGI (EKVX NSCLC): 18.6 µM | GI50 (MCF7 breast): 3.51 µM | TGI (MCF7 breast): 18.9 µM | GI50 (ACHN renal): 4.44 µM | TGI (ACHN renal): 17.7 µM

Reference: PubChem BioAssay (NCI)
